Where “and” joins values, the source holds several entries; their conditions need not be identical. Equal values may be shown once. Where no end group is shown, it is not given here.
How the values were obtained:
[1] = system: hMSCs; experiment: Fluorescent peptide binding to hMSCs (confocal microscopy, imaging flow cytometry); assay type: cell-based, human; details: for binding to hMSCs: fluorescent peptide 0, 2.5, 10, 40 μM, 37° C.; for percentage of cells surrounded by FITC-conjugated BiFP (imaging flow cytometry): increasing concentration from 2.5 to 40 μM
Method: FIG. 2a and FIG. 2b show the results of the analysis of hMSCs binding to BiFP. The hMSCs were labeled with Hochest 33258, and incubated with FITC-labeled BiFP for 1 h, followed by imaging flow cytometry on an Amnis Imaging Cytometer (left). Bar=10 μm. Quantification of the percentage of BiFP-bound hMSCs (right).
The FITC-labeled BiFP or rhodamine-labeled collagen XII-targeting peptide (Col12-TP) are chemically synthesized by Biomertech (USA) or ABI (USA) to identify peptide binding by confocal microscopic observation. Briefly, for FITC-BiFP or rhodamine-Col12-TP treatment, 1×10^6 hMSCs incubated with 1 μM DilC18 in 37° C. for 10 min and then incubated in final 200 μl PBS with fluorescent peptide at 0, 2.5, 10, 40 μM in 37° C. for 30 min with gently mixing every 10 min. Cells are counterstained with mounting solution containing DAPI. Peptide fluorescence was taken using an ImageXpress Micro Confocal High Content Imaging system (Molecular Devices, Sunnyvale, CA, USA).

[2] = system: chondrocyte line hiP cells; experiment: Col12-TP binding to chondrocyte line hiP cells; assay type: cell-based
[3] = system: rat OA knee joints; experiment: Rat papain/cysteine OA model, histology and modified Mankin score 8 weeks post-transplantation; assay type: in vivo
Method: (§1) FIG. 4a and FIG. 4b show the FITC-fluorescence-labeled BiFP without or with blocking peptide (FIG. 4a) and the DilC18-fluorescence-labeled rat MSCs (rMSCs) without or with delivery in BiFP (BiFP+rMSCs) (FIG. 4b) are intra-articularly injected into rat OA knee joints pre-established with papain/cysteine, respectively. The whole joint capsules are removed at 24 h post-injection, and articular surfaces of the distal femur are observed under a two-photon microscope. Representative images of second harmonic generation (SHG) signals in collagen and fluorescent signals of BiFP (FIG. 4a) and rMSCs (FIG. 4b) are shown (left). Quantification of overall fluorescence areas (right). FIG. 4c and FIG. 4d show the representative images of Hematoxylin and eosin (H&E) staining (FIG. 4c), and safranin-O/fast green staining (FIG. 4d) of distal femurs of sham-control or OA knee joints collected 8 weeks post-transplantation without or with BiFP, rMSCs, and rMSCs delivered in BiFP (BiFP+rMSCs). […] Bar=50 μm. The data are shown as mean±SD. * p<0.05, ** p<0.01 and **** p<0.0001 as determined by Student's t test (2 groups) or one-way ANOVA (≥3 groups).
Furthermore, after incubation with BiFP, MSCs are immediately injected into OA joints in a rat model, and the joints are subjected to histological examination 8 weeks post-transplantation.

[4] = Particle size distribution by dynamic light scattering (DLS); assay type: physicochemical; details: 0.2 mg/ml in PBS at 25° C.
Method: (§2) The triple helix structure of BiFP, collagen, or denatured collagen peptides was measured at 0.2 mg/ml.
(§3) In the present invention, a bifunctional peptide (BiFP) is synthesized to prevent complicated chemical steps and improve efficiency. A 42-residue peptide (BiFP) with a sequence where GPOGPOGPOGPOGFOGERGPOGPOGPOGPODLQYWYPIWDTH, O is hydroxyproline, was prepared in PBS, pH 7.4 at 25° C. by Biomedical Translation Research Center (Taiwan). The triple helix structure of BiFP, collagen, or denatured collagen peptides was measured at 0.2 mg/ml, respectively. The particle size distribution of 0.2 mg/ml BiFP in PBS at 25° C. was examined by dynamic light scattering (DLS). […] Size was evaluated using dynamic light scattering: Malvern ZS90 zetasizer (Malvern Instruments Corp, Malvern, UK).

[5] = Circular dichroism (CD) spectroscopy of secondary structure; assay type: physicochemical; details: 0.2 mg/ml; PBS, pH 7.4
Method: as §2, §3

[6] = system: hMSCs; experiment: hMSC viability, Calcein-AM / ethidium homodimer staining; assay type: cell-based, human; details: compared to Col12-TP; 0, 2.5, 10, 40 μM
Method: (§4) The hMSCs are incubated with Col12-TP or BiFP peptide for 1 h, and stained with Calcein-AM (green) and ethidium homodimer (magenta), followed by confocal microscopic observation (left). Bar=50 μm. The quantification of viable cell percentages (right). […] The hMSCs are stained with 1,9 dimethylmethlyene blue (DMB) dye and analyzed at OD 525 nm. Results are normalized by PicoGreen dsDNA quantitation. The data are shown as mean±SD. * p<0.05, ** p<0.01, *** p<0.001 and **** p<0.0001 as determined by Student's t test (2 groups) or the ANOVA (≥3 groups).
For BiFP or Col12-TP treatment, 1×10^6 hMSCs incubated in final 200 μl PBS with peptide at 0, 2.5, 10, 40 μM in 37° C. for 30 mins with gently mixing every 10 min. Cells are stained with Calcein-AM (ThermoFisher) for live hMSCs and ethidium homodimer (Life Technologies) for dead hMSCs, respectively. Labeled hMSCs are visualized with ImageXpress Micro Confocal High Content Imaging system (Molecular Devices, Sunnyvale, CA, USA). Three independent images each group are counted live hMSCs and quantified.

[7] = system: hMSCs; experiment: WST-1 proliferation assay of peptide-bound hMSCs; assay type: cell-based, human; details: compared to Col12-TP
[8] = system: hMSCs; experiment: Real-time RT-PCR of chondrogenic genes in peptide-bound hMSCs; assay type: cell-based, human; details: compared to Col12-TP; at 1 week
[9] = system: hMSCs; experiment: sGAG production in peptide-bound hMSCs (DMB dye); assay type: cell-based, human; details: compared to Col12-TP; at 2 weeks
Method: as §4

[10] = system: OA cartilage; experiment: OA-specific targeting of labeled BiFP, two-photon microscopy of rat OA joints; assay type: in vivo; details: intra-articular injection, rat OA joint, 24 h post-injection
Method: as §1
Since BiFP can home to OA cartilage and the chondrogenesis-inducing ability of integrin α2β1 is likely to induce MSCs to undergo chondrogenesis, the BiFP is applied in the delivery of human MSCs to the OA cartilage surface for OA regenerative medicine.

[11] = system: intervertebral disc (IVD); experiment: Rat intervertebral disc damage model induced by 20 G needle puncture; assay type: in vivo; details: rat tail
Excerpt: FIG. 7a is the schematic flowchart of the experimental design for intervertebral disc (IVD) regeneration by PBS, BiFP, EGFP-expressing hMSCs without or with delivery in BiFP (BiFP+hMSCs) in the rat intervertebral disc damage model induced by 20 G needle puncture. The rats were sacrificed at the indicated time point. The rat tail tissues were subjected to X-Ray, T2-weighted MRI, Hematoxylin and eosin (H&E), Safranin O/fast green stain, immunohistochemistry and immunofluorescence analysis. […] FIG. 7d and FIG. 7e show the representative images of H&E staining and safranin-O/fast green staining of NP tissues, respectively. […] Positive signal is visualized as brown color (DAB). […] Cell nuclei were counterstained with 4′, 6-diamidino-2-phenylindole (DAPI). Bar=50 μm. […] X-ray, T2-weighted MRI and histological, histochemical and immunofluorescence analyses reveal the successful induction of IVD damage when compared PBS group with sham control group (FIG. 7b-7e).

[12] = system: corneal epithelium; experiment: Rat corneal epithelial injury model induced by n-heptanol; assay type: in vivo; details: one eye drop (20 μl); up to 2 weeks after injury
Method: FIG. 8a is the schematic flowchart of the experimental design for corneal epithelium regeneration by EGFP-expressing hMSCs without or with delivery in BiFP (BiFP+hMSCs) in the rat corneal epithelium damage model. […] Representative fluorescein-stained cornea images are shown at indicated time points (left). Quantification of the percentage of healed area was calculated using ImageJ Fiji software (right). * p<0.05, ** p<0.01 and *** p<0.001 as determined by One Way ANOVA. […] Bar=50 μm. […] Positive signal is visualized as brown color (DAB) and NC is negative control. Bar=50 μm. To further confirm the utility of BiFP as a cell carrier and expand the application of BiFP-delivered MSCs in corneal epithelial defect regeneration, a rat model of severe and corneal epithelial injury induced by repeated n-heptanol administration was utilized.

Substance	binding to hMSCs [1]	binding to collagen XII-expressing hiP cells [2]	histology (H&E, safranin-O) of OA knee joints [3]	particle size (main size) by dynamic light scattering [4]	conformation in solution by CD spectroscopy [5]	percentage of cells surrounded by FITC-conjugated BiFP (imaging flow cytometry) [1]	cell viability of hMSCs [6]	cell proliferation of hMSCs [7]	expression of chondrogenic genes sox9, col2a1 and aggrecan [8]	synthesis of glycosaminoglycan [9]	fluorescent signal (red dots) in OA cartilage [10]	intervertebral disc regeneration / damage (T2 MRI, safranin-O) [11]	corneal epithelial defect (fluorescein staining) [12]
Col12-TP: collagen XII-targeting peptide of the applicant's previous application TW202128730 (DLQYWYPIWDTH; also: rhodamine-labeled) [reference compound]	cannot bind to hMSCs	can bind to Col12-TP	still exhibited severe OA	–	–	–	–	–	–	–	–	–	–
GPOGPOGPOGPOGFOGERGPOGPOGPOGPODLQYWYPIWDTH [BiFP]	can bind to hMSCs in a dose-dependent manner	–	still exhibited severe OA	~ 1.914 nm and 1.914 nm	stable triple-helical conformation	increase in the percentage of cells surrounded by FITC-conjugated BiFP	increase cell viability	increase	increased expression of chondrogenic genes	enhance synthesis of glycosaminoglycan	apparent red dots are observed	still exhibited severe IVD damage	remained markedly defective even 2 weeks after injury
GPOGPOGPOGPOGVMGFOGPOGPOGPOGPODLQYWYPIWDTH [BiFP containing a GVMGFO sequence]	can also bind to hMSCs	–	–	–	–	increase in the percentage of cells surrounded by FITC-conjugated BiFP	–	–	–	–	–	–	–

From patent US20260273131A1, “Cell graft delivered in a delivery system and use thereof in regenerative medicine” (China Medical University, priority 2022, published 2026)
